# Patent publication US11583507B2, “Direct AMPK activator compounds” (SOCIETE DES PRODUITS NESTLE S.A., priority 2018, dated 2023)
# Assays:
# AMPKα1β1γ1 (111) = molecular target: T1, AMPKα1β1γ1 (111) (Homo sapiens, UniProt P54619+Q13131+Q9Y478); assay: AMPK in vitro activity assay (HTRF-KinEASE), α1-containing complex; format: biochemical; settings: fold activation vs complex without compound
# T1 construct: His; made in house; host or cells: bacteria
# Protocol: (§1) Lusianthridin (CAS 87530-30-1) was isolated from Thunia alba fruit. It was sourced from Analyticon (NP-012362). The plant was purchased through Analyticon's biomaterial supplier in 2003. The country of origin is Nepal. The AMPK heterotrimers were expressed in bacteria and purified through the His-α subunit by nickel purification. AMPK complexes were purified through gel filtration and phosphorylated by incubation with CaMKKβ, and further purified with a final gel filtration purification step. Phosphorylated purified AMPK was incubated with varying concentrations of ligand for 30 mins using substrate and reagents from the HTRF-KinEASE Cisbio assay kit (STK S1 Kit). Phosphorylation of the substrate was measured by incubating with donor and acceptor antibodies for 2 h at room temperature as per the manufacturer's protocol (and Coulerie et al., (2016) PMID: 27792327) and phosphorylated peptide detected by performing HTRF. The 665 nm/620 nm ratio was determined and the results are plotted as fold activation compared to the respective AMPK complex without any compound.
# C2C12 AMPKα1α2+/+ cells = assay: Glucose uptake (3H-2-deoxyglucose) in differentiated C2C12 AMPKα1α2+/+ cells; format: cell-based, murine
# Text: (§2) C2C12 AMPK α1α2 double knockout cell lines were generated by transient transfection of wild type cells with plasmids containing Cas9 enzyme linked to green fluorescent protein expression and Cas9 guide RNA sequences targeting the murine AMPK α1 subunit (sc-430618, SantaCruz) and the murine AMPK α2 subunit (sc-430803, SantaCruz). Cells positive for green fluorescent protein expression were single cell sorted by flow cytometry into 96-well plates containing growth medium and analysed for loss of AMPK signaling following expansion of the clones.
# (§3) Differentiated C2C12 AMPKα1α2+/+ and AMPKα1α2−/− cells were treated with either vehicle (0.2% DMSO), 30 μM or 100 μM Lusianthridin for 1 h at 37° C. […] Finally, differentiated C2C12 AMPKα1α2+/+ and AMPKα1α2−/− cells were treated with either vehicle (0.2% DMSO) or 100 μM Lusianthridin in the presence or absence of 15 nM Wortmanin for 1 h at 37° C. For the Wortmanin experiments, differentiated C2C12 cells were pre-incubated with DMSO or Wortmanin for 1 h prior to treatment.
# (§4) Glucose uptake was determined by monitoring the uptake of 3H-2-deoxyglucose into cells. C2C12 AMPKα1α2+/+ and AMPKα1α2−/− cells were maintained in DMEM GlutaMAX supplemented with 20% (vol/vol) FBS and 100 U/ml penicillin G, and 100 μg/ml streptomycin. […] Cells were lysed and the quantity of ^3H determined in these samples using a scintillation counter.
# [1] = molecular target: T2, AMPK α2β1γ1 S108A mutant (211 S108A) (Homo sapiens, UniProt P54619+P54646+Q9Y478, S108A); assay: AMPK in vitro activity assay (HTRF-KinEASE), β1 S108A mutant; format: biochemical
# T2 construct: His; made in house; host or cells: bacteria
# Protocol: as §1
# primary hepatocytes = assay: Lipogenesis ([1-14C]-acetate incorporation into fatty acids) in primary hepatocytes; format: cell-based, mouse; settings: 1 h at 37 C, varying concentrations
# Protocol: Hepatocyte isolation: The liver was first perfused with 50 ml perfusion buffer (Krebs-Hepes buffer with […] EDTA), followed with 50 ml collagenase A buffer (Krebs-Hepes buffer with 5 mM CaCl2 and 0.5 mg/ml collagenase). […] Hepatocytes were left to attach (3-4 h) and cultured overnight in M199 supplemented with antibiotics and 100 nM dexamethasone. Cells were used for experiments the following morning. For primary hepatocyte isolation see Example 4. For lipogenesis measurements in primary hepatocytes, cells were seeded at 600 K cells per well in a 6-well plate overnight. Media was replaced with fresh M199 media alone for 2 hours prior to incubation with varying concentrations of Lusianthridin for 1 h at 37 C, in the presence of [1-^14C]-acetate. The incorporation of [^14C] into fatty acids was determined in the lower organic layer after separation from the aqueous phase. […] Lipogenesis is controlled by the AMPK substrate ACC, and phosphorylation and inhibition of ACC by AMPK, leads to a decrease in lipogenesis. Lipogenesis was measured in primary hepatocytes by determining the incorporation of ^14C-labelled acetate into fatty acids. Lipogenesis was monitored in the presence or absence of varying concentrations of Lusianthridin for 1 h at 37 C. […] This observation is consistent with its ability to activate AMPK in hepatocytes, which leads to the phosphorylation and inhibition of ACC.
# C2C12 AMPKα1α2−/− cells = assay: Glucose uptake (3H-2-deoxyglucose) in differentiated C2C12 AMPKα1α2−/− cells; format: cell-based, murine; settings: 30 or 100 μM Lusianthridin, 300 nM Insulin, 1 h at 37° C
# Text: as §2, §3, §4
# T2 sequence (P54646 whole entry): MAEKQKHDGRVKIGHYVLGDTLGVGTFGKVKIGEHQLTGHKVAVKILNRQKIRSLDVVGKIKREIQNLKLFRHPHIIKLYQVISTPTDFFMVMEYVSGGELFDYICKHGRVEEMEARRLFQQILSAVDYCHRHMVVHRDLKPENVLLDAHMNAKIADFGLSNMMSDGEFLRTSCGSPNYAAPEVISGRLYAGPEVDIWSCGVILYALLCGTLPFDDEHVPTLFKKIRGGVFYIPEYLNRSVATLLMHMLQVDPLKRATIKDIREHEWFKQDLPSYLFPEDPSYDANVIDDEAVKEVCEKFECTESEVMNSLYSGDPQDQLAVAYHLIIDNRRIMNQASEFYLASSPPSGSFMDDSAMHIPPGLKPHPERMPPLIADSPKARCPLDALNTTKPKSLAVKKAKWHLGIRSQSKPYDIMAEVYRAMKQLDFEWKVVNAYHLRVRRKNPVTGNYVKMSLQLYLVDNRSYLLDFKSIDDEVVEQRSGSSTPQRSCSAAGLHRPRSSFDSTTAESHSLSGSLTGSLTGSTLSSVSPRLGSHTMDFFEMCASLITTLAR
# T2 sequence (Q9Y478 whole entry S108A): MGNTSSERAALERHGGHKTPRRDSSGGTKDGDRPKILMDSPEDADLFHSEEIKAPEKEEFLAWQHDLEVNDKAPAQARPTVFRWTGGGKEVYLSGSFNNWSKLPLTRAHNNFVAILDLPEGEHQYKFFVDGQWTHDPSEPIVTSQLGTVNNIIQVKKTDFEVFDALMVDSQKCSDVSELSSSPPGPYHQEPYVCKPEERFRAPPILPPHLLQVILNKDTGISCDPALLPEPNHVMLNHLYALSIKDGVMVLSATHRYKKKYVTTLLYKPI
# T2 sequence (P54619 whole entry): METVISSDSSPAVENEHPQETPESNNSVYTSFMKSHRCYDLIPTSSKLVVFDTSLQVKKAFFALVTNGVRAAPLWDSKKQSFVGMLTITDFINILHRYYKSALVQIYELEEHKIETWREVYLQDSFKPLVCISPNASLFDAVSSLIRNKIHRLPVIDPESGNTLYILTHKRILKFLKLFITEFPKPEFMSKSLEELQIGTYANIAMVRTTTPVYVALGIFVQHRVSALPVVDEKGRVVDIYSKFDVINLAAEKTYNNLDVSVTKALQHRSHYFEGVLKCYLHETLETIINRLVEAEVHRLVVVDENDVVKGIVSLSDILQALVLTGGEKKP
# T1 sequence (Q13131 whole entry): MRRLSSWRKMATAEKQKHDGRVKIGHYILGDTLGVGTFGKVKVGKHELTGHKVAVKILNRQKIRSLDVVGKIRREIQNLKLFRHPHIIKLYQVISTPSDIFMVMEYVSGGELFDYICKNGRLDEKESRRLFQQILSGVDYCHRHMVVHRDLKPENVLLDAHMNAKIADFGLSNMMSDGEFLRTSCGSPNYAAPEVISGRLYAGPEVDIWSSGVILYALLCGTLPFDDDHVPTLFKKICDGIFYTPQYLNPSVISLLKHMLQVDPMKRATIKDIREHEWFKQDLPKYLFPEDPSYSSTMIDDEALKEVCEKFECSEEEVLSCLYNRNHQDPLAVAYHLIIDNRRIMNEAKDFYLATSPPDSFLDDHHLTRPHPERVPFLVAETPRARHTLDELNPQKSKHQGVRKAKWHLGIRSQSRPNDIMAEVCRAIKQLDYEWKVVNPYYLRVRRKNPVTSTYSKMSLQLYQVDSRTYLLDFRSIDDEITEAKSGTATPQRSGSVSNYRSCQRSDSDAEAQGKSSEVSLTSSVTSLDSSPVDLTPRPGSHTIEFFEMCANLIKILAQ
# T1 sequence (Q9Y478 whole entry): as the sequence (Q9Y478 whole entry S108A) above, with A108S counted along it
# T1 sequence (P54619 whole entry): as the sequence (P54619 whole entry) above
smiles,measurement,setting,value
"COc1cc(O)c2c(c1)CCc1cc(O)ccc1-2 [Lusianthridin, 7-Methoxy-9,10-dihydrophenanthrene-2,5-diol]",activation of bacterially-expressed AMPKα1β1γ1 complexes,AMPKα1β1γ1 (111),Activates
same,glucose uptake (fold change relative to control),"C2C12 AMPKα1α2+/+ cells; C2C12 AMPKα1α2+/+, 30 or 100 μM Lusianthridin, 300 nM Insulin, 1 h at 37° C",increase in glucose uptake
same,effect of Wortmanin on stimulated glucose uptake,"C2C12 AMPKα1α2+/+ cells; in the presence of 15 nM Wortmanin (1 h pre-incubation), 100 μM Lusianthridin or 300 nM Insulin, 1 h",no effect
same,activation of AMPK complexes with the β1 S108A mutation,[1],does not activate
same,rate of lipogenesis (DPM per μg of protein),primary hepatocytes,inhibit lipogenesis in a dose-dependent manner
same,glucose uptake (fold change relative to control),C2C12 AMPKα1α2−/− cells,abolished
